One experiment has as its target T1, oestrogen receptor (Bos taurus, UniProt P49884).
T1 construct: oestrogen receptor of a calf's uterus; from tissue; host or cells: calf uterus
T1 sequence (P49884 1-596): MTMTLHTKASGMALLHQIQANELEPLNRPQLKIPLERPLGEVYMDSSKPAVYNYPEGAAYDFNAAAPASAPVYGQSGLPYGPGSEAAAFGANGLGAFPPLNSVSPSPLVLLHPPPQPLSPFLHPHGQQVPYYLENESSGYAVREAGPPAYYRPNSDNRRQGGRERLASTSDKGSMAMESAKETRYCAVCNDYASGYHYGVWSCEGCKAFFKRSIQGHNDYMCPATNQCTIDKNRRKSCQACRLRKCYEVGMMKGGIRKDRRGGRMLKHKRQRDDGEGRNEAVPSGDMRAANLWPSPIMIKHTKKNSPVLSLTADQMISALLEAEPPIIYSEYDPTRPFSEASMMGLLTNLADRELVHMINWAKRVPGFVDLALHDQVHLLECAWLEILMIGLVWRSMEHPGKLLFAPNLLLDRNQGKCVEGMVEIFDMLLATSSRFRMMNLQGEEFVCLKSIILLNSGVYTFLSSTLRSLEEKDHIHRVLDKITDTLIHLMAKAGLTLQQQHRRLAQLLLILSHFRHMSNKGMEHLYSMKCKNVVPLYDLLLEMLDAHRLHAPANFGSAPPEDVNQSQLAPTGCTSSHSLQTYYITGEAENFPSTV
The experiment in a line: Relative bonding affinity to the oestrogen receptor (competition with 3H-17β-Estradiol). Format: binding, calf. To be noted: for RBA* (relative bonding affinity to the oestrogen receptor): calves' uteri, in relation to 17β-estradiol = 100. An excerpt: The test methodology is described in Cancer Treatment Reviews 1984, 11, 147.
*Relative bonding affinities to the oestrogen receptor of calves' uteri,
in relation to 17β-estradiol = 100

The test system of experiment [1] is human MCF-7 mamma carcinoma cells. The experiment in a line: Effect on cell growth of MCF-7 cells. Format: cell-based. To be noted: for activity at 10 µM / activity at 1 µM / activity at 0.1 µM / activity at 5 µM: Homo sapiens, MCF7, mean of 16 individual results, read-out: T/C (corrected); for activity at 10 µM: 1 × 10^-5 M; for activity at 1 µM: 1 × 10^-6 M; for activity at 0.1 µM: 1 × 10^-7 M; for activity at 5 µM: 5 × 10^-6 M.
Protocol: Data given as corrected T/C values (%).
^a Inhibiting effect on MCF7 cells: quotient of optical densities fro
standard deviation through error reckoning according to GAUSS.
^b Substance concentration (mol/1) in incubation medium.
^c Significant p < 0.01 in relation to control group (C).

Experiment [2] deals with uterus of infantile mice. The experiment in a line: Uterotrophic test (in-vivo test on infantile mice). To be noted: uterus dry weight (mg)/body weight (g) × 100. The method, then: (§1) The effectiveness of these compounds was found in an in-vivo test on infantile mice. This test is extensively described in Cancer Treatment Reviews 1984, 11, 147, and J. Med. Chem., 1984, 27, 1439.
(§2) ^a dosage/animal, administered s.c. on three consecutive days in oliv
(§3) ^b uterus dry weight (mg)/body weight (g) × 100, determined 24
(§4) hours after the final injection.

Experiment [3] has as its system uterus of infantile mice. The experiment in a line: Anti-uterotrophic test (in-vivo test on infantile mice). To be noted: simultaneous 0.4 μg oestron/animal/day; for anti-uterotrophic test, effect: uterus dry weight (mg)/body weight (g) × 100. The method, then:
as §1, §2, §3, §4
^c simultaneous administration of 0.4 μg oestron/animal/day.

[4] abbreviates: 1 μg/animal s.c. on three consecutive days.
Setting [5] is: 5 μg/animal s.c. on three consecutive days.
The mark [6] stands for this setting: 25 μg/animal s.c. on three consecutive days.

Results on 9 compounds are retold here after patent US5470854A, “2-phenylbenzo[B]furans, process for their manufacture and pharmaceutical preparations containing them” (Schering Aktiengesellschaft, priority 1991, dated 1995).

As for `Cc1c(-c2ccc(O)cc2)oc2ccc(O)cc12` [Compound 61a], the “RBA* (relative bonding affinity to the oestrogen receptor)” value at oestrogen receptor is reported as 2,0. In experiment [1], the “effect on the growth of MCF-7 / hormone-dependent tumour cells, in words” value was “strongly inhibiting effect”; the activity at 10 µM was found to be 13.3 ± 5.3%; the activity at 1 µM came to 78.1 ± 17.2%; the activity at 0.1 µM was found to be 72.3 ± 18.2%. Further, the activity at 5 µM in experiment [1] came to 37.7 ± 11.9%.
For `Cc1c(-c2ccc(O)cc2)oc2cc(O)ccc12` [Compound 61b, 6-hydroxy-2-(4-hydroxyphenyl)-3-methylbenzo[b]furan], on oestrogen receptor, the “RBA* (relative bonding affinity to the oestrogen receptor)” value is listed as 0,2.
Take `CCc1c(-c2ccc(O)cc2)oc2ccc(O)cc12` [Compound 62a, 3-ethyl-5-hydroxy-2-(4-hydroxyphenyl)benzo[b]furan]: on oestrogen receptor, the “affinity to the oestrogen (estradiol) receptor, in words” value is recorded as “greatest affinity in relation to estradiol” and the “RBA* (relative bonding affinity to the oestrogen receptor)” value is listed as 15,7. Further, in the experiment on uterus of infantile mice [2] (setting [4]), the “uterotrophic test, effect” value amounted to 10.5 ± 1.9 mg/g × 100. Also, the “uterotrophic test, effect” value with uterus of infantile mice [2] (setting [5]) amounted to 14.6 ± 2.4 mg/g × 100. Further, the “uterotrophic test, effect” value with uterus of infantile mice [2] (setting [6]) amounted to 19.0 ± 4.4 mg/g × 100. For the same compound, in the experiment with uterus of infantile mice [3] (5 μg/animal s.c.), the “anti-uterotrophic test, inhibition” value is recorded as 10% and the “anti-uterotrophic test, effect” value is listed as 39.1 ± 4.2 mg/g × 100. Further, in the experiment on uterus of infantile mice [3] (25 μg/animal s.c.), the “anti-uterotrophic test, inhibition” value was 22% and the “anti-uterotrophic test, effect” value is listed as 35.6 ± 2.6 mg/g × 100. For the same compound, the “anti-uterotrophic test, effect” value in the experiment on uterus of infantile mice [3] (1 μg/animal s.c.) turned out to be 44.2 ± 7.8 mg/g × 100. Also, in experiment [1], the “effect on the growth of MCF-7 / hormone-dependent tumour cells, in words” value is given as “strongly inhibiting effect”; the activity at 10 µM was -0.2 ± 2.9%; the activity at 1 µM was 49 ± 12.6%; the activity at 0.1 µM is 65 ± 13.5%. In addition, the activity at 5 µM in experiment [1] worked out at 0.3 ± 3.8%.
For `CCc1c(-c2ccc(O)cc2)oc2cc(O)ccc12` [Compound 62b, 3-ethyl-6-hydroxy-2-(4-hydroxyphenyl)benzo[b]furan], the “RBA* (relative bonding affinity to the oestrogen receptor)” value at oestrogen receptor was 0,6. In addition, the “uterotrophic test, effect” value with uterus of infantile mice [2] (setting [4]) worked out at 12.9 ± 2.5 mg/g × 100; with uterus of infantile mice [2] (setting [5]), 14.5 ± 3.7 mg/g × 100; with uterus of infantile mice [2] (setting [6]), 17.0 ± 3.3 mg/g × 100; with uterus of infantile mice [2] (125 μg/animal s.c. on three consecutive days), 18.3 ± 6.3 mg/g × 100. Besides, the “anti-uterotrophic test, inhibition” value in the experiment with uterus of infantile mice [3] (125 μg/animal s.c.) stood at 12%. For the same compound, the “anti-uterotrophic test, effect” value in the experiment on uterus of infantile mice [3] (5 μg/animal s.c.) was 60.3 ± 5.8 mg/g × 100; in the experiment with uterus of infantile mice [3] (25 μg/animal s.c.) it was 56.9 ± 7.1 mg/g × 100; in the experiment on uterus of infantile mice [3] (125 μg/animal s.c.) it was 49.8 ± 7.9 mg/g × 100.
In the case of `CCCc1c(-c2ccc(O)cc2)oc2ccc(O)cc12` [Compound 63a, 5-hydroxy-2-(4-hydroxyphenyl)-3-propylbenzo[b]furan], on oestrogen receptor, the “affinity to the oestrogen (estradiol) receptor, in words” value was “greatest affinity in relation to estradiol” and the “RBA* (relative bonding affinity to the oestrogen receptor)” value was 20,0. In experiment [1], the “effect on the growth of MCF-7 / hormone-dependent tumour cells, in words” value is “strongly inhibiting effect”; the activity at 10 µM is -2.1 ± 2.8%; the activity at 1 µM was determined as 50.5 ± 8.8%; the activity at 0.1 µM turned out to be 51 ± 11.3%. In addition, the activity at 5 µM in experiment [1] was -0.1 ± 3.6%.
For the compound `CCCc1c(-c2ccc(O)cc2)oc2cc(O)ccc12` [Compound 63b, 6-hydroxy-2-(4-hydroxyphenyl)-3-propylbenzo[b]furan], the “RBA* (relative bonding affinity to the oestrogen receptor)” value at oestrogen receptor is given as 1,7.
Turning to `CCCCc1c(-c2ccc(O)cc2)oc2ccc(O)cc12` [Compound 64a, 3-butyl-5-hydroxy-2-(4-hydroxyphenyl)benzo[b]furan], the “RBA* (relative bonding affinity to the oestrogen receptor)” value on oestrogen receptor is recorded as 1,6.
On the same count and under the same terms, the value for `CCCCc1c(-c2ccc(O)cc2)oc2cc(O)ccc12` [Compound 64b, 3-butyl-6-hydroxy-2-(4-hydroxyphenyl)benzo[b]furan] was 0,6.
On to `CC/C(=C(\c1ccccc1)c1ccc(OCCN(C)C)cc1)c1ccccc1` [Tam, Tamoxifen, reference compound], for which, in experiment [1], the activity at 10 µM is -5.7 ± 3.4%, the activity at 1 µM came to 59.1 ± 14.1% and the activity at 0.1 µM worked out at 56.5 ± 16.3%.
